{
  "source": "paper PMC7712541",
  "about": "“Seven New Cytotoxic and Antimicrobial Xanthoquinodins from Jugulospora vestita” (Journal of Fungi, 2020)",
  "key": {"[1]": {"tested_on": "KB 3.1, L929, A549, SK-OV-3, PC-3, A431, and MCF-7 mammalian cell lines", "experiment": "Cytotoxicity, summary over all tested cell lines", "type": "cell-based", "conditions": "seven mammalian cell lines; read-out: IC50 values, range over all tested cell lines", "experimental": "(§1) Compounds were tested for their antimicrobial activity against […] fungi (Candida albicans, Mucor hiemails, Pichia anomala, Rhodotorula glutinis and Schizosaccharomyces pombe), four different Gram-positive bacteria (Bacillus subtilis, Micrococcus luteus, Mycobacterium smegmatis and Staphylococcus aureus), and three Gram-negative bacteria (Chromobacterium violaceum, Escherichia coli and Pseudomonas aeruginosa), using oxytetracycline as a positive control against Gram-positive and Gram-negative bacteria, while nystatin was used as an antifungal positive control. Besides, cytotoxicities of the compounds against seven mammalian cell lines (human endocervical adenocarcinoma KB 3.1, breast cancer MCF-7, lung cancer A549, ovary cancer SK-OV-3, prostate cancer PC-3, squamous cancer A431, and mouse fibroblasts L929) were determined by the microculture tetrazolium test (MTT) method, using epothilon B as the positive control. Both bioactivity assays were performed following our standard protocols."}, "Mycobacterium smegmatis": {"tested_on": "Mycobacterium smegmatis", "experiment": "MIC, antibacterial test", "type": "cell-based", "parameters": "key: –: no inhibition observed under test conditions", "experimental": "as §1"}, "[2]": {"tested_on": "Chromobacterium violaceum", "experiment": "MIC, antibacterial test", "type": "cell-based", "parameters": "key to Minimum inhibitory concentration (MIC): –: no inhibition observed under test conditions", "conditions": "read-out: Minimum inhibitory concentration (MIC)", "experimental": "as §1"}, "Pseudomonas aeruginosa": {"tested_on": "Pseudomonas aeruginosa", "experiment": "MIC, antibacterial test", "type": "cell-based", "parameters": "key to Minimum inhibitory concentration (MIC): –: no inhibition observed under test conditions", "experimental": "as §1"}, "Escherichia coli": {"tested_on": "Escherichia coli", "experiment": "MIC, antibacterial test", "type": "cell-based", "parameters": "key to Minimum inhibitory concentration (MIC): –: no inhibition observed under test conditions", "experimental": "as §1"}, "Staphylococcus aureus": {"tested_on": "Staphylococcus aureus", "experiment": "MIC, antibacterial test", "type": "cell-based", "conditions": "read-out: Minimum inhibitory concentration (MIC)", "experimental": "as §1"}, "Bacillus subtilis": {"tested_on": "Bacillus subtilis", "experiment": "MIC, antibacterial test", "type": "cell-based", "conditions": "read-out: Minimum inhibitory concentration (MIC)", "experimental": "as §1"}, "Micrococcus luteus": {"tested_on": "Micrococcus luteus", "experiment": "MIC, antibacterial test", "type": "cell-based", "conditions": "read-out: Minimum inhibitory concentration (MIC)", "experimental": "as §1"}, "Mucor hiemalis": {"tested_on": "Mucor hiemalis", "experiment": "MIC, antifungal test", "type": "cell-based", "parameters": "key to Minimum inhibitory concentration (MIC): –: no inhibition observed under test conditions", "experimental": "as §1"}, "Pichia anomala": {"tested_on": "Pichia anomala", "experiment": "MIC, antifungal test", "type": "cell-based", "parameters": "key to Minimum inhibitory concentration (MIC): –: no inhibition observed under test conditions", "experimental": "as §1"}, "[3]": {"tested_on": "Schizosaccharomyces pombe", "experiment": "MIC, antifungal test", "type": "cell-based", "parameters": "key to Minimum inhibitory concentration (MIC): –: no inhibition observed under test conditions", "experimental": "as §1"}, "Candida albicans": {"tested_on": "Candida albicans", "experiment": "MIC, antifungal test", "type": "cell-based", "parameters": "key to Minimum inhibitory concentration (MIC): –: no inhibition observed under test conditions", "experimental": "as §1"}, "Rhodotorula glutinis": {"tested_on": "Rhodotorula glutinis", "experiment": "MIC, antifungal test", "type": "cell-based", "parameters": "key to Minimum inhibitory concentration (MIC): –: no inhibition observed under test conditions", "experimental": "as §1"}, "[4]": {"tested_on": "Al. brassicicola, Co. gloeosporioides, Co. truncatum, Cu. lunata and Py. grisea", "parameters": "method as in PMID 29677644", "conditions": "cited from earlier work"}, "NCI-H187 and Vero": {"tested_on": "NCI-H187 and Vero", "parameters": "method as in PMID 29677644", "conditions": "cited from earlier work"}, "Cytotoxicity, MTT method": {"experiment": "Cytotoxicity, MTT method", "experimental": "as §1"}, "prostate cancer PC-3": {"tested_on": "prostate cancer PC-3", "experiment": "Cytotoxicity, MTT method", "conditions": "read-out: Cytotoxicity, half maximal inhibitory concentration (IC50); PC-3, MTT", "experimental": "as §1"}, "[5]": {"tested_on": "A431 human squamous cancer cells", "experiment": "Cytotoxicity, MTT method", "conditions": "read-out: Cytotoxicity, half maximal inhibitory concentration (IC50); A431, MTT", "experimental": "as §1"}, "[6]": {"tested_on": "human endocervical adenocarcinoma KB 3.1", "experiment": "Cytotoxicity, MTT method", "conditions": "read-out: Cytotoxicity, half maximal inhibitory concentration (IC50); KB 3.1, MTT", "experimental": "as §1"}, "mouse fibroblasts L929": {"tested_on": "mouse fibroblasts L929", "experiment": "Cytotoxicity, MTT method", "conditions": "read-out: Cytotoxicity, half maximal inhibitory concentration (IC50); L929, MTT", "experimental": "as §1"}, "ovary cancer SK-OV-3": {"tested_on": "ovary cancer SK-OV-3", "experiment": "Cytotoxicity, MTT method", "conditions": "read-out: Cytotoxicity, half maximal inhibitory concentration (IC50); SK-OV-3, MTT", "experimental": "as §1"}, "lung cancer A549": {"tested_on": "lung cancer A549", "experiment": "Cytotoxicity, MTT method", "conditions": "read-out: Cytotoxicity, half maximal inhibitory concentration (IC50); A549, MTT", "experimental": "as §1"}, "[7]": {"tested_on": "MCF-7 human breast cancer cells", "experiment": "Cytotoxicity, MTT method", "conditions": "read-out: Cytotoxicity, half maximal inhibitory concentration (IC50); MCF-7, MTT", "experimental": "as §1"}, "[8]": {"tested_on": "PC-3 prostate cancer cells", "parameters": "method as in PMID 31433962", "conditions": "cited from earlier work"}},
  "data": [
    {"compound": "COC(=O)[C@]12Oc3c(c(O)cc4c3[C@@H]3C=C[C@]5(C4)C(=C(O)c4c(O)cc(C)cc4[C@@H]5O)C3=O)C(=O)C1=C(O)CC[C@@H]2O", "note": "[Compound 8, Xanthoquinodin B4]", "values": [
      {"measurement": "IC50", "setting": "[1]", "value": "100 to 4700", "unit": "nM"},
      {"measurement": "Minimum inhibitory concentration (MIC)", "setting": "Mycobacterium smegmatis", "value": "–"},
      {"measurement": "MIC", "setting": "[2]", "value": 66.7, "unit": "µg/mL"},
      {"measurement": "Minimum inhibitory concentration (MIC)", "setting": "Pseudomonas aeruginosa", "value": "–"},
      {"measurement": "Minimum inhibitory concentration (MIC)", "setting": "Escherichia coli", "value": "–"},
      {"measurement": "MIC", "setting": "Staphylococcus aureus", "value": 8.3, "unit": "µg/mL"},
      {"measurement": "MIC", "setting": "Bacillus subtilis", "value": 2.1, "unit": "µg/mL"},
      {"measurement": "MIC", "setting": "Micrococcus luteus", "value": 8.3, "unit": "µg/mL"},
      {"measurement": "Minimum inhibitory concentration (MIC)", "setting": "Mucor hiemalis", "value": "–"},
      {"measurement": "Minimum inhibitory concentration (MIC)", "setting": "Pichia anomala", "value": "–"},
      {"measurement": "Minimum inhibitory concentration (MIC)", "setting": "[3]", "value": "–"},
      {"measurement": "Minimum inhibitory concentration (MIC)", "setting": "Candida albicans", "value": "–"},
      {"measurement": "Minimum inhibitory concentration (MIC)", "setting": "Rhodotorula glutinis", "value": "–"},
      {"measurement": "Antifungal effects (in words)", "setting": "[4]", "value": "significant antifungal effects"},
      {"measurement": "Cytotoxicity compared with other xanthoquinodins (in words)", "setting": "NCI-H187 and Vero", "value": "stronger cytotoxicity"},
      {"measurement": "IC50", "setting": "Cytotoxicity, MTT method; human, A431 squamous cancer cells", "value": 160, "unit": "nM"},
      {"measurement": "IC50", "setting": "Cytotoxicity, MTT method; human, A549 lung cancer cells", "value": 1220, "unit": "nM"},
      {"measurement": "IC50", "setting": "Cytotoxicity, MTT method; human, KB 3.1 endocervical adenocarcinoma cells", "value": 1060, "unit": "nM"},
      {"measurement": "IC50", "setting": "Cytotoxicity, MTT method; human, MCF-7 breast cancer cells", "value": 100, "unit": "nM"},
      {"measurement": "IC50", "setting": "Cytotoxicity, MTT method; human, PC-3 prostate cancer cells", "value": 3140, "unit": "nM"},
      {"measurement": "IC50", "setting": "Cytotoxicity, MTT method; human, SK-OV-3 ovary cancer cells", "value": 470, "unit": "nM"},
      {"measurement": "IC50", "setting": "Cytotoxicity, MTT method; mouse, L929 fibroblasts", "value": 4700, "unit": "nM"}
    ]},
    {"compound": "C/C(=C\\c1csc(C)n1)[C@@H]1C[C@@H]2O[C@]2(C)CCC[C@H](C)[C@H](O)[C@@H](C)C(=O)C(C)(C)[C@@H](O)CC(=O)O1", "note": "[epothilon B, reference compound]", "values": [
      {"measurement": "IC50", "setting": "prostate cancer PC-3", "value": 0.07, "unit": "nM"},
      {"measurement": "IC50", "setting": "[5]", "value": 0.05, "unit": "nM"},
      {"measurement": "IC50", "setting": "[6]", "value": 0.03, "unit": "nM"},
      {"measurement": "IC50", "setting": "mouse fibroblasts L929", "value": 0.51, "unit": "nM"},
      {"measurement": "IC50", "setting": "ovary cancer SK-OV-3", "value": 0.09, "unit": "nM"},
      {"measurement": "IC50", "setting": "lung cancer A549", "value": 0.09, "unit": "nM"},
      {"measurement": "IC50", "setting": "[7]", "value": 0.03, "unit": "nM"}
    ]},
    {"compound": "xanthoquinodin JBIR-99", "values": [
      {"measurement": "Antiproliferative activity (in words)", "setting": "[8]", "value": "high selective antiproliferative activity"}
    ]}
  ]
}
